Results: PubChem BioAssay (NCI)
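A five-concentration, 48-hour dose response in 96-well plates underlies each endpoint, interpolated linearly between surrounding concentrations. Abbreviation: GI50, concentration required for 50% inhibition of growth. TGI is the concentration that stops growth completely.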

Experiments:
Test in all cases: NCI-60 cell line screen, 48 h
MCF7 breast = tested on: MCF7 breast
HL-60(TB) leukemia = tested on: HL-60(TB) leukemia
SK-MEL-28 melanoma = tested on: SK-MEL-28 melanoma
EKVX NSCLC = tested on: EKVX NSCLC
NCI-H226 lung = tested on: NCI-H226 lung
HS 578T breast = tested on: HS 578T breast
COLO 205 colon = tested on: COLO 205 colon
SN12C renal = tested on: SN12C renal
HOP-92 NSCLC = tested on: HOP-92 NSCLC
HCT-116 colon = tested on: HCT-116 colon
PC-3 prostate = tested on: PC-3 prostate
RXF 393 renal = tested on: RXF 393 renal
SK-MEL-5 melanoma = tested on: SK-MEL-5 melanoma
BT-549 breast = tested on: BT-549 breast
LOX IMVI melanoma = tested on: LOX IMVI melanoma
K-562 leukemia = tested on: K-562 leukemia
NCI-H522 lung = tested on: NCI-H522 lung
SK-MEL-2 melanoma = tested on: SK-MEL-2 melanoma
786-0 renal = tested on: 786-0 renal
SK-OV-3 ovarian = tested on: SK-OV-3 ovarian
HCC-2998 colon = tested on: HCC-2998 colon
SW-620 colon = tested on: SW-620 colon
NCI-H23 lung = tested on: NCI-H23 lung
SF-268 CNS = tested on: SF-268 CNS
SF-539 CNS = tested on: SF-539 CNS
SNB-75 CNS = tested on: SNB-75 CNS
SR leukemia = tested on: SR leukemia
HCT-15 colon = tested on: HCT-15 colon
KM12 colon = tested on: KM12 colon
MALME-3M melanoma = tested on: MALME-3M melanoma
RPMI-8226 leukemia = tested on: RPMI-8226 leukemia
CAKI-1 renal = tested on: CAKI-1 renal
ACHN renal = tested on: ACHN renal
UO-31 renal = tested on: UO-31 renal
MDA-MB-435 = tested on: MDA-MB-435
SF-295 CNS = tested on: SF-295 CNS
OVCAR-4 ovarian = tested on: OVCAR-4 ovarian
HOP-62 NSCLC = tested on: HOP-62 NSCLC
MDA-MB-231 breast = tested on: MDA-MB-231 breast
UACC-62 melanoma = tested on: UACC-62 melanoma
MOLT-4 leukemia = tested on: MOLT-4 leukemia
M14 melanoma = tested on: M14 melanoma
IGROV1 ovarian = tested on: IGROV1 ovarian
OVCAR-5 ovarian = tested on: OVCAR-5 ovarian
TK-10 renal = tested on: TK-10 renal
OVCAR-8 ovarian = tested on: OVCAR-8 ovarian
NCI/ADR-RES ovarian = tested on: NCI/ADR-RES ovarian
CCRF-CEM leukemia = tested on: CCRF-CEM leukemia
A549 NSCLC = tested on: A549 NSCLC
T-47D breast = tested on: T-47D breast
HT29 colon = tested on: HT29 colon
NCI-H460 lung = tested on: NCI-H460 lung
SNB-19 CNS = tested on: SNB-19 CNS
U251 CNS = tested on: U251 CNS
UACC-257 melanoma = tested on: UACC-257 melanoma
DU-145 prostate = tested on: DU-145 prostate

`C=C(C=O)[C@@H]1CC[C@]2(C)[C@H](CC=C3[C@H]4[C@@H](C)[C@H](C)CC[C@]4(C(=O)OC)CC[C@]32C)[C@@]1(C)CCC#N` showed a GI50 (MCF7 breast) of 1610 nM, a TGI (MCF7 breast) of 4090 nM and a GI50 (HL-60(TB) leukemia) of 2260 nM. It also gave a TGI (HL-60(TB) leukemia) of 5950 nM, a GI50 (SK-MEL-28 melanoma) of 1810 nM and a TGI (SK-MEL-28 melanoma) of 3330 nM. For the same compound, the GI50 (EKVX NSCLC) was 1890 nM, the TGI (EKVX NSCLC) was 3710 nM and the GI50 (NCI-H226 lung) was 1810 nM. For the same compound, the TGI (NCI-H226 lung) was 3940 nM, the GI50 (HS 578T breast) was 2530 nM and the TGI (HS 578T breast) was 5980 nM. For the same compound, the GI50 (COLO 205 colon) was 1800 nM, the TGI (COLO 205 colon) was 3550 nM and the GI50 (SN12C renal) was 1820 nM. For the same compound, the TGI (SN12C renal) was 3830 nM, the GI50 (HOP-92 NSCLC) was 1300 nM and the TGI (HOP-92 NSCLC) was 2640 nM. For the same compound, the GI50 (HCT-116 colon) was 1490 nM, the TGI (HCT-116 colon) was 3050 nM and the GI50 (PC-3 prostate) was 1200 nM. For the same compound, the TGI (PC-3 prostate) was 3100 nM, the GI50 (RXF 393 renal) was 1990 nM and the TGI (RXF 393 renal) was 3550 nM. For the same compound, the GI50 (SK-MEL-5 melanoma) was 1740 nM, the TGI (SK-MEL-5 melanoma) was 3140 nM and the GI50 (BT-549 breast) was 1620 nM. For the same compound, the TGI (BT-549 breast) was 3240 nM, the GI50 (LOX IMVI melanoma) was 1610 nM and the TGI (LOX IMVI melanoma) was 3080 nM. It also gave a GI50 (K-562 leukemia) of 2830 nM, a TGI (K-562 leukemia) of over 100000 nM and a GI50 (NCI-H522 lung) of 1760 nM. It also gave a TGI (NCI-H522 lung) of 3310 nM, a GI50 (SK-MEL-2 melanoma) of 1710 nM and a TGI (SK-MEL-2 melanoma) of 3210 nM. For the same compound, the GI50 (786-0 renal) was 1730 nM, the TGI (786-0 renal) was 3290 nM and the GI50 (SK-OV-3 ovarian) was 2390 nM. The TGI (SK-OV-3 ovarian) was 5260 nM, the GI50 (HCC-2998 colon) was 1630 nM and the TGI (HCC-2998 colon) was 3110 nM. For the same compound, the GI50 (SW-620 colon) was 1760 nM, the TGI (SW-620 colon) was 3360 nM and the GI50 (NCI-H23 lung) was 1810 nM. It also gave a TGI (NCI-H23 lung) of 3590 nM, a GI50 (SF-268 CNS) of 1990 nM and a TGI (SF-268 CNS) of 3570 nM. For the same compound, the GI50 (SF-539 CNS) was 1930 nM, the TGI (SF-539 CNS) was 3490 nM and the GI50 (SNB-75 CNS) was 1550 nM. For the same compound, the TGI (SNB-75 CNS) was 3010 nM, the GI50 (SR leukemia) was 1860 nM and the TGI (SR leukemia) was over 100000 nM. For the same compound, the GI50 (HCT-15 colon) was 1470 nM, the TGI (HCT-15 colon) was 3070 nM and the GI50 (KM12 colon) was 1600 nM. For the same compound, the TGI (KM12 colon) was 3060 nM, the GI50 (MALME-3M melanoma) was 1960 nM and the TGI (MALME-3M melanoma) was 3690 nM. The GI50 (RPMI-8226 leukemia) was 1610 nM, the TGI (RPMI-8226 leukemia) was 5710 nM and the GI50 (CAKI-1 renal) was 1560 nM. It also gave a TGI (CAKI-1 renal) of 3160 nM, a GI50 (ACHN renal) of 1640 nM and a TGI (ACHN renal) of 3020 nM. For the same compound, the GI50 (UO-31 renal) was 1480 nM, the TGI (UO-31 renal) was 2810 nM and the GI50 (MDA-MB-435) was 1810 nM. The TGI (MDA-MB-435) was 3530 nM, the GI50 (SF-295 CNS) was 1340 nM and the TGI (SF-295 CNS) was 2670 nM. For the same compound, the GI50 (OVCAR-4 ovarian) was 3070 nM, the TGI (OVCAR-4 ovarian) was 10700 nM and the GI50 (HOP-62 NSCLC) was 1960 nM. It also gave a TGI (HOP-62 NSCLC) of 3900 nM, a GI50 (MDA-MB-231 breast) of 1790 nM and a TGI (MDA-MB-231 breast) of 3760 nM. The GI50 (UACC-62 melanoma) was 1590 nM, the TGI (UACC-62 melanoma) was 3590 nM and the GI50 (MOLT-4 leukemia) was 2660 nM. For the same compound, the TGI (MOLT-4 leukemia) was 12600 nM, the GI50 (M14 melanoma) was 1790 nM and the TGI (M14 melanoma) was 3840 nM. It also gave a GI50 (IGROV1 ovarian) of 1820 nM, a TGI (IGROV1 ovarian) of 3750 nM and a GI50 (OVCAR-5 ovarian) of 2160 nM. It also gave a TGI (OVCAR-5 ovarian) of 4890 nM, a GI50 (TK-10 renal) of 1610 nM and a TGI (TK-10 renal) of 3320 nM. For the same compound, the GI50 (OVCAR-8 ovarian) was 1900 nM, the TGI (OVCAR-8 ovarian) was 3890 nM and the GI50 (NCI/ADR-RES ovarian) was 1950 nM. It also gave a TGI (NCI/ADR-RES ovarian) of 4580 nM, a GI50 (CCRF-CEM leukemia) of 1420 nM and a TGI (CCRF-CEM leukemia) of 9470 nM. It also gave a GI50 (A549 NSCLC) of 3490 nM, a TGI (A549 NSCLC) of 14800 nM and a GI50 (T-47D breast) of 1340 nM. The TGI (T-47D breast) was 5540 nM, the GI50 (HT29 colon) was 1590 nM and the TGI (HT29 colon) was 3470 nM. For the same compound, the GI50 (NCI-H460 lung) was 1880 nM, the TGI (NCI-H460 lung) was 3540 nM and the GI50 (SNB-19 CNS) was 1940 nM. The TGI (SNB-19 CNS) was 4160 nM, the GI50 (U251 CNS) was 1680 nM and the TGI (U251 CNS) was 3120 nM. The GI50 (UACC-257 melanoma) was 1820 nM, the TGI (UACC-257 melanoma) was 3530 nM and the GI50 (DU-145 prostate) was 1940 nM. The TGI (DU-145 prostate) was 3750 nM.
